From patent publication US20190328706A1, “COMPOSITIONS COMPRISING AN INTEGRIN INHIBITOR AND AGENTS WHICH INTERACT WITH A CHEMOKINE AND METHODS OF USE THEREOF” (Saint Louis University, priority 2016, published 2019)
Like-named read-outs stand apart in the source and are kept apart here.

System: human G2 acute lymphoblastic leukemia (ALL) cells
Assay: Flow cytometry cell-based assay: inhibition of soluble VCAM-1 binding to G2 ALL cells
Conditions: for IC50: inhibition of sVCAM-1 binding to human G2 ALL cells, read-out: sVCAM-1 IC50
Procedure: (§1) Compounds were tested for their ability to inhibit the binding of soluble VCAM-1 to human G2 acute lymphoblastic leukemia (ALL) cells. Briefly, G2 ALL cells are pre-incubated with increasing concentrations (0.001 to 1000 nM) of compounds for 30 minutes. Soluble VCAM/Fc chimera protein (R&D systems) is then added to the mixture and the cells incubated for an additional 30 minutes. Afterwards, cells are washed and VCAM-1 is detected using PE-conjugated secondary mAbs. In each experiment, an aliquot of cells will be stained with isotype control mAbs to serve as a negative control. The percentage of VCAM-1 binding cells was then determined by flow cytometry.
as §1, with “(ALL) cells or 5TGMI myeloma” for “(ALL)”, “ALL or 5TGMI” for “ALL”

IC50 (Table 12)	Compound	other results
72 nM	COc1cc(C(N)=O)cc(OC)c1-c1ccc(C[C@H](NC(=O)c2c(Cl)cc(C(=O)O)cc2Cl)C(=O)O)cc1 [Cmpd 21, 4-{[(1S)-2-[4-(4-carbamoyl-2,6-dimethoxyphenyl)phenyl]-1-carboxyethyl]carbamoyl}-3,5-dichlorobenzoic acid]	
0.47 nM	COc1cc(CO)cc(OC)c1-c1ccc(C[C@H](NC(=O)c2c(Cl)cc(C(=O)O)cc2Cl)C(=O)O)cc1 [Cmpd 22, 4-{[(1S)-1-carboxy-2-{4-[4-(hydroxymethyl)-2,6-dimethoxyphenyl]phenyl}ethyl]carbamoyl}-3,5-dichlorobenzoic acid]	
0.58 nM	CCOCc1cc(OC)c(-c2ccc(C[C@H](NC(=O)c3c(Cl)cc(C(=O)O)cc3Cl)C(=O)O)cc2)c(OC)c1 [Cmpd 23, 4-{[(1S)-1-carboxy-2-{4-[4-(ethoxymethyl)-2,6-dimethoxyphenyl]phenyl}ethyl]carbamoyl}-3,5-dichlorobenzoic acid]	
218 nM	COc1cc(C(=O)O)cc(OC)c1-c1ccc(C[C@H](NC(=O)c2c(Cl)cc(C(=O)O)cc2Cl)C(=O)O)cc1 [Cmpd 24, 4-{4-[(2S)-2-carboxy-2-[(4-carboxy-2,6-dichlorophenyl)formamido]ethyl]phenyl}-3,5-dimethoxybenzoic acid]	
70 nM	COc1cc(C(C)(C)O)cc(OC)c1-c1ccc(C[C@H](NC(=O)c2c(Cl)cc(C(=O)O)cc2Cl)C(=O)O)cc1 [Cmpd 25, 4-{[(1S)-1-carboxy-2-{4-[4-(2-hydroxypropan-2-yl)-2,6-dimethoxyphenyl]phenyl}ethyl]carbamoyl}-3,5-dichlorobenzoic acid]	
1.57 nM	COc1cc(CF)cc(OC)c1-c1ccc(C[C@H](NC(=O)c2c(Cl)cc(C(=O)O)cc2Cl)C(=O)O)cc1 [Cmpd 26, 4-{[(1S)-1-carboxy-2-{4-[4-(fluoromethyl)-2,6-dimethoxyphenyl]phenyl}ethyl]carbamoyl}-3,5-dichlorobenzoic acid]	
2.47 nM	CCOCc1cc(OC)c(-c2ccc(C[C@H](NC(=O)[C@]3(C)CCCN3S(=O)(=O)c3cc(Cl)cc(Cl)c3)C(=O)O)cc2)c(OC)c1 [Cmpd 33, (S)-2-((S)-1-((3,5-dichlorophenyl)sulfonyl)-2-methylpyrrolidine-2-carboxamido)-3-(4′-(ethoxymethyl)-2′,6′-dimethoxy-[1,1′-biphenyl]-4-yl)propanoic acid]	
11.7 nM	CCOCc1cc(OC)c(-c2ccc(C[C@H](NC(=O)[C@]3(C)CCCN3S(=O)(=O)c3ccccc3)C(=O)O)cc2)c(OC)c1 [Cmpd 34, (S)-3-(4′-(ethoxymethyl)-2′,6′-dimethoxy-[1,1′-biphenyl]-4-yl)-2-((S)-2-methyl-1-(phenylsulfonyl)pyrrolidine-2-carboxamido)propanoic acid]	
	COc1cc(COC2COC2)cc(OC)c1-c1ccc(C[C@H](NC(=O)[C@@H]2CCCN2S(=O)(=O)c2cc(Cl)cc(Cl)c2)C(=O)O)cc1 [Compound 009]	IC50 (Table 10): 4.47 nM
	COc1cccc(N2CCC[C@H]2C(=O)N[C@@H](Cc2ccc(-c3c(OC)cccc3OC)cc2)C(=O)O)c1 [Compound 822]	IC50 (Table 10): 69 nM
	COc1cccc(OC)c1-c1ccc(C[C@H](NC(=O)C2(c3ccccn3)CCCC2)C(=O)O)cc1 [Compound 825]	IC50 (Table 10): 48 nM
	COc1cc(C(N)=O)cc(OC)c1-c1ccc(C[C@H](NC(=O)c2c(Cl)cc(C(=O)O)cc2Cl)C(=O)O)cc1 [Compound 1219, 4-{[(1S)-2-[4-(4-carbamoyl-2,6-dimethoxyphenyl)phenyl]-1-carboxyethyl]carbamoyl}-3,5-dichlorobenzoic acid]	IC50 (Table 8): 72 nM
	COc1cc(CO)cc(OC)c1-c1ccc(C[C@H](NC(=O)c2c(Cl)cc(C(=O)O)cc2Cl)C(=O)O)cc1 [Compound 1220, 4-{[(1S)-1-carboxy-2-{4-[4-(hydroxymethyl)-2,6-dimethoxyphenyl]phenyl}ethyl]carbamoyl}-3,5-dichlorobenzoic acid]	IC50 (Table 8): 0.47 nM; inhibition of sVCAM-1 binding compared with other inhibitors (flow cytometry, FIG. 6, 7, 10, 11): more potent inhibitors than 823
